# Assays:
# [1] = tested on: type II collagen-induced arthritis; assay: type II collagen-induced arthritis model; assay type: in vivo, DBA/1 strain mouse; settings: for bone destruction score: 26th day after the secondary sensitization
# Protocol: A solution (4 mg/ml) of bovine joint cartilage type II collagen in diluted hydrochloric acid was mixed with Freund' s complete adjuvant of the same volume to prepare an emulsion. As a primary sensitization, this emulsion was injected intra-dermally into tail root site of DBA/1 strain mouse at a dose of 100 µl (corresponding to 200 µg of the type II collagen per mouse). After 21 days from the primary sensitization, 100 µl of this emulsion was injected intra-dermally into a tail root site of the mouse again (secondary sensitization). […] 5% carboxymethyl cellulose and a nonsteroidal anti-inflammatory drug was suspended in 1% methyl cellulose. With regard to the confirmation of onset of arthritis, the stage where swelling at the site of joint accompanied by erythema was defined as the onset of arthritis. With regard to degree of the arthritis, scoring was conducted for each paw according to the evaluating criterion for arthritis grade as mentioned below and the total point for four paws was used as an arthritic score. • 0: no change • 1: weak swelling and weak erythema were observed • 2: weak swelling and erythema were observed • 3: strong swelling and erythema were observed • 4: strong swelling and erythema accompanied by bone erosion were observed Then, on the 26th day after the secondary sensitization, X-ray photographs of the joints of four paws were taken.
# [2] = tested on: adjuvant-induced arthritis; assay: adjuvant-induced arthritis model; assay type: in vivo, rat
# Protocol: A suspension (0.6 mg/100 µl) of Mycobacterium butyricum (adjuvant) in liquid paraffin was injected subcutaneously into a left hind paw of rat (male; nine weeks age; body weight being about 240 grams) to induce arthritis.
# Incidentally, as a control, a suspension not containing a test compound was administered by the same manner as above.
# [3] = tested on: hepatic allotransplantation; settings: rats; Surg. Today, 26, 419-426(1996); cited from earlier work
# [4] = diclofenac sodium alone 3 mg/kg, oral once a day
# [5] = present compound alone 100 mg/kg, oral once a day
SMILES,"arthritic score [1, 4]","effect of delaying the onset of arthritis [1, 4]",bone destruction score ([1]; diclofenac sodium alone 3 mg/kg),"arthritic score [1, 5]","incidence of arthritis [1, 5]",bone destruction score ([1]; present compound alone 100 mg/kg),"incidence of arthritis ([1]; present compound alone 200 mg/kg, oral once a day, tendency = nearly as control, as at 100 mg/kg)","arthritic score ([1]; present compound alone 200 mg/kg, oral once a day, tendency = slight improvement as at 100 mg/kg)",bone destruction score ([1]; present compound alone 200 mg/kg),"pathohistological test: bone destruction, edema, etc. ([2]; present compound alone)","edema of left hindpaw (paw volume) ([2]; present compound alone 100 mg/kg, oral once a day from the 14th day after adjuvant)",immunosuppressive action to hepatic allotransplantation [3]
"O=C(O)Cc1ccccc1Nc1c(Cl)cccc1Cl [diclofenac sodium, reference compound]",improvement in the arthritic score was recognized,no effect of delaying the onset of arthritis was recognized,a suppressive effect was recognized but the instant effect was far weaker than in the case of the combination administration,–,–,–,–,–,–,–,–,–
"COc1ccc(/C=C/CCCCOc2cccc(OCCCCC(=O)O)c2CCC(=O)O)cc1 [the present compound, 3-[1-[6-(4-methoxyphenyl)hex-5E-enyl]oxy-3-(4-carboxylbutyl)oxybenzen-2-yl]propionic acid]",–,–,–,improvement was recognized slightly,nearly the same proceeding as in the control group,no suppressive effect was recognized at all,Such a tendency was unchanged,Such a tendency was unchanged,the suppressive effect was hardly recognized,nearly no suppressive effect,nearly no suppressive effect on edema was recognized,shows an immunosuppressive action

# Reference: patent EP0891772A2, “Therapeutic agent for rheumatic disease comprising nonsteroidal anti-inflamatory drug and phenylpropionic acid derivative” (SANTEN PHARMACEUTICAL CO., LTD., priority 1997, dated 1999)
